Biological target: LuxG (Photobacterium leiognathi, UniProt P29237)
Test: stopped-flow NADH fluorescence, amplitude titration
Assay type: binding

LuxG, sequence (P29237 whole entry): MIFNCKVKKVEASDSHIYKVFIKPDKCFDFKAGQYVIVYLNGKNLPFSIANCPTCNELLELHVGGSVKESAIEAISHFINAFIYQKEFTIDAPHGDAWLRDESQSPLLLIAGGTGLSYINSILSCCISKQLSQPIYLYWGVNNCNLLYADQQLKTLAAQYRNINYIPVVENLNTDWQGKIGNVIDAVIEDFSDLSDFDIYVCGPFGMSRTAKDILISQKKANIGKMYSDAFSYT

## NC(=O)C1=CN([C@@H]2O[C@H](COP(=O)(O)OP(=O)(O)OC[C@H]3O[C@@H](n4cnc5c(N)ncnc54)[C@H](O)[C@@H]3O)[C@@H](O)[C@H]2O)C=CC1 [NADH]
  Kd: 25 ± 4 µM
